2 substances from patent US20260055141A1, “COMPOSITIONS AND METHODS FOR CONTROLLING FOOD INTAKE, ENERGY EXPENDITURE, AND BODY WEIGHT FOR THE TREATMENT OF OBESITY AND METABOLIC DISEASES” (The Trustees of the University of Pennsylvania, priority 2022, published 2026) can be followed below.

The nature of data set [1]: Circular dichroism (CD) spectroscopy, secondary structure. To be noted: 40 μM in 0.5% saline. On the technique in general: Circular dichroism is widely used to follow secondary structure.
Data set [2] is described as follows: Lateral intraventricular injection in HEPES buffer, food intake and body weight in DIO rats. The format is in vivo, rat. Particulars: lateral ventricle; for food intake compared to control: 60% HFD, 1, 3, 6, 24 h. On the procedure:
Diet induced obese (DIO) rats (n=4) were administered 150 μg/3 μL SU75-36 in a vehicle or in a HEPES buffer by lateral intraventricular injection and observed over 24 hours. One group of rats was administered a Vehicle of 50% DMSO in HEPES as a negative control. All rats were given ad libitum access to water and 60% HFD. […] (FIG. 10A). […] Rats were weighed at the beginning of the experiment and 24 hours after administration. The weight change of each rat after 24 hours was then calculated. […] (FIG. 10B). In a separate experiment, diet induced obese (DIO) rats (n=4) were administered 133 μg/2 μL SU75-37 in a HEPES buffer by lateral intraventricular injection and observed over 24 hours. One group of rats was administered a vehicle without a GPR75 inhibitor as a negative control. All rats were given ad libitum access to water and a 60% high fat diet (HFD). SU75-37 was optimized using an acetate salt precipitation rather than a TFA salt precipitation to maintain a neutral >4.5 pH in HEPES buffer solution. The food intake of each rat was observed 1, 3, 6, and 24 hours after administration. […] Rats were weighed at the beginning of the experiment and 24 hours after administration. The weight change of each rat after 24 hours was then calculated. […] (FIG. 11B).

The format of data set [3] is in vivo, rat. To be noted: for food intake compared to control: SU75-36 20 or 200 μg, SU75-37 20 μg, 1, 3, 6, 24 h; for body weight change after 24 hours: any dosage, rats fed chow or HFD; for kaolin intake (pica, model of malaise and nausea): rat, in vivo. On the procedure: Adult male Sprague-Dawley rats (Charles River) were individually housed under a 12 h-light: 12 h-dark cycle in a temperature and humidity-controlled satellite vivarium and had ad libitum access to water and chow (5001, LabDiet) or a 60% high fat diet (HFD): D12492, Research Diets) and when applicable had ad libitum access to kaolin pellets (K50001, Research Diets). Rats were exposed to kaolin for at least 5 days prior to measuring kaolin consumption in pica testing. Except for studies conducted in the bioDAQ, for all feeding studies rats were housed in hanging wire cages to allow for accurate measurement of food spillage. Experiments were conducted under the National Institutes for Health Guide for the Care and Use of Laboratory Animals and all procedures were approved by the Institutional Animal Care and Use Committee at the University of Pennsylvania.
For cannula implantation, rats were anesthetized by intraperitoneal injection of a mixture containing ketamine (90 mg/kg, Butler Animal Health Supply), xylazine (2.7 mg/kg, Anased), and acepromazine (0.64 mg/kg, Butler Animal Health Supply) (KAX) and then placed into a stereotaxic apparatus. Each rat was stereotaxically implanted with a guide cannula (26-ga, Plastics One) aimed at the fourth ventricle (guide cannula coordinates: on midline. 2.5 mm anterior to occipital suture, 5.2 mm ventral to skull; internal cannula aimed 7.2 mm ventral to skull) or the lateral ventricle (guide cannula coordinates: 1.5 mm lateral to midline, 0.9 mm posterior to bregma. 1.8 mm ventral to skull; internal cannula aimed 3.8 mm ventral to skull). For all cannulas, dummies (no projection beyond guide) were inserted in the guide cannula and left until infusions were performed. For all surgeries, rats received post-operative temperature support and analgesia was provided immediately following surgery and for two post-operative days (2 mg/kg meloxicam).
For all studies measuring food intake following drug treatment, central injections were given at a volume of 2 μL using a Hamilton syringe terminating in an injector tip extending 2.0 mm beyond the guide cannula. For acute treatment days, rats were food deprived for 2 hours before the dark cycle and injections were done immediately prior to the dark cycle onset. Food and kaolin intake was measured 1, 3, 6, and 24 hours after injections were completed and food crumbs were weighed and accounted for between each timepoint. Body weight was measured during injections and 24 hours after. Injection treatments were organized in a counterbalanced, within-subjects design and separated by ≥72 h.
In a separate experiment, chow maintained (n=10) and diet-induced obese (DIO) rats (n=12) were administered 20 μg SU75-36, 200 μg SU75-36, or 20 μg SU75-37 by intracerebroventricular injection to the lateral ventricle and observed over 24 hours. One group of rats was administered a vehicle without a GPR75 inhibitor as a negative control. All rats were given ad libitum access to access to water, kaolin pellets to assess pica behavior, and food, either a standard chow diet or a 60% high fat diet (HFD). The food intake of chow (FIG. 8A) or HFD (FIG. 8B), and kaolin take of chow-maintained rats (FIG. 8C) and HFD-maintained rats (FIG. 8D) of each rat was observed 1, 3, 6, and 24 hours after administration of the GPR75 inhibitor.
Rats were weighed at the beginning of the experiment and 24 hours after administration of the GPR75 inhibitor. The weight change of each rat after 24 hours was then calculated. […] (FIGS. 8E, 8F).

Data set [4] concerns the target T1, human GLP-1R (21-139aa region) (Homo sapiens, UniProt P43220).
T1 construct: human GLP-1R (21-139aa region); purchased rndsystems.com (R&D Systems) 10956-GL
Briefly: Surface Plasmon Resonance (SPR) binding at hGLP-1R. Particulars: for binding at hGLP-1R: Ex-4 positive and ODN negative control. On the procedure:
SU75-36, SU75-37, Ex-4, and ODN binding at the human GLP-1R (21-139aa region; available on the world wide web at rndsystems.com cat #10956-GL) was measured via a Nicoya Open SPR instrument using His-tagged hGLP-1R bound to an NTA-coated gold sensor (Nicoya cat #SEN-AU-100-10-NTA) using HBSS (in-house) at 20 μL/min flow rate. Data was fit via a global, one-to-one model using Nicoya OpenSPR software. In-house Ex-4 and ODN were used as the positive and negative controls, respectively.

Data set [5] is described as follows: Peripheral (IP) administration, food intake and body weight in DIO mice. The format is in vivo, mouse. Particulars: for 24 h food intake: IP 0.5 and 5 mg/kg, male HFD fed mice (FIG. 12 legend). On the procedure: DIO mice were administered 0.5 mg/kg or 5.0 mg/kg of either SU75-36 or SU75-37 in a vehicle by […] injection and observed over 24 hours. One group of mice was administered a vehicle as a negative control. All mice were given ad libitum access to water and a 60% HFD. […] (FIGS. 12A and 12C). […] Mice were weighed at the beginning of the experiment and 24 hours after administration. The weight change of each mouse after 24 hours was then calculated. […] (FIGS. 12B and 12D) This experiment was then repeated for SU75-37 at a higher dose (10 mg/kg). […] (FIG. 13A).

Where [6] appears, read: lateral ventricle, chow and HFD rats.
[7] abbreviates: 5 mg/kg peripheral injection, DIO mice, 60% HFD, 3 and 24 h.

“Also recorded” adds a separate entry of the source. Where two headings read alike, the source gives them in different places. Non-standard residues stand in square brackets, D forms with d. No end group written: not given here.

In general, Kd refers to the concentration at which binding is half-saturated. Lower therefore signals tighter binding.

As for “H[dS]QGTFTSDLSKYLEEEVREFIWLKNGGPSDVNTDRPGLLDLK-NH2 [SU75-36]”, the “secondary structure (folded state) from CD spectra” value in data set [1] was “typical α-helix”. Also, the “food intake compared to any of the other groups” value is given as “further decrease” in data set [2] (150 μg/3 μL in HEPES buffer, DIO rats); “further decrease” in data set [3] (lateral ventricle, 200 μg, chow and HFD rats). The “food intake compared to control” value in data set [2] (150 μg/3 μL in vehicle (50% DMSO in HEPES) or HEPES buffer, DIO rats) is given as “significant decrease in food intake”; in data set [2] (150 μg/3 μL in vehicle (50% DMSO in HEPES) or HEPES buffer, DIO rats, listed as 36), “suppresses”; in data set [3] (setting [6]) it was “significant decrease in food intake”; in data set [5] (setting [7]), “significant decrease in food intake”. Further, the “body weight change after 24 hours compared to any other of the groups” value in data set [2] (150 μg/3 μL with HEPES buffer, DIO rats) is listed as “further decrease”. Also, the “body weight change after 24 hours” value is reported as “significant decrease in weight” in data set [2] (150 μg/3 μL, DIO rats); “significant decrease in weight” in data set [3] (lateral ventricle); “significant decrease in weight” in data set [5] (0.5 or 5.0 mg/kg peripheral injection, DIO mice). Moreover, in data set [3], the “kaolin intake (pica, model of malaise and nausea)” value is “absence of kaolin intake”. Moreover, the “binding at hGLP-1R” value in data set [4] is “poor binding”. The Kd in data set [4] (His-tagged hGLP-1R on NTA sensor, HBSS) was 182 µM. Moreover, the “24 h food intake” value in data set [5] is listed as “suppresses”.
Turning to “TFTSDLSKYLEEEVREFIWLKNGGPSDVNTDRPGLLDLK-NH2 [SU75-37]”, the “secondary structure (folded state) from CD spectra” value in data set [1] was “typical α-helix”. In addition, the “food intake compared to control” value in data set [2] (133 μg/2 μL in HEPES buffer, acetate salt precipitation, DIO rats) was “significant decrease in food intake”; in data set [3] (setting [6]), “significant decrease in food intake”; in data set [5] (setting [7]) it was “significant decrease in food intake”; in data set [5] (IP 10 mg/kg, HFD fed mice, 10 mg/kg), “significant decrease in food intake”; in data set [5] (IP 10 mg/kg, HFD fed mice, listed as 37, 10 mg/kg), “suppresses”. For the same substance, the “body weight change after 24 hours” value was “significant decrease in weight” in data set [2] (133 μg/2 μL in HEPES buffer, DIO rats); “significant decrease in weight” in data set [3] (lateral ventricle); “significant decrease in weight” in data set [5] (IP 10 mg/kg, HFD fed mice). Moreover, the “24 h food intake” value is recorded as “suppresses” in data set [2] (150 μg/3 μL in HEPES buffer, male HFD fed rats (FIG. 11 legend)) and “suppresses” in data set [5]. Besides, the “kaolin intake (pica, model of malaise and nausea)” value in data set [3] is recorded as “absence of kaolin intake”. Further, the “binding at hGLP-1R” value in data set [4] was “did not bind; also recorded: does not bind”.
